Calls of active or inactive are those of the source. The rule behind the calls is not given here.
Test system: CCRIS mutagenicity, Ames/micronucleus/aberration tests
Experiment: CCRIS mutagenicity studies

Structure (SMILES): ClC(Cl)Br
- mutagenic call (End Point: Ames Salmonella typhimurium, Test System: TA97, Metabolic Activation: Hamster, liver, S-9 (10 & 30%), Aroclor 1254, Method: Preincubation): inactive; negative
- mutagenic call (End Point: Ames Salmonella typhimurium, Test System: TA97, Metabolic Activation: None, Method: Preincubation): inactive; negative
- mutagenic call (End Point: Ames Salmonella typhimurium, Test System: TA97, Metabolic Activation: Rat, liver, S-9 (10 & 30%), Aroclor 1254, Method: Preincubation): inactive; negative
- mutagenic call (End Point: Ames Salmonella typhimurium, Test System: TA98, Metabolic Activation: Hamster, liver, S-9 (10 & 30%), Aroclor 1254, Method: Preincubation): inactive; negative
- mutagenic call (End Point: Ames Salmonella typhimurium, Test System: TA98, Metabolic Activation: None, Method: Preincubation): inactive; negative
- mutagenic call (End Point: Ames Salmonella typhimurium, Test System: TA98, Metabolic Activation: Rat, liver, S-9 (10 & 30%), Aroclor 1254, Method: Preincubation): inactive; negative
- mutagenic call (End Point: Ames Salmonella typhimurium, Test System: TA100, Metabolic Activation: Hamster, liver, S-9 (10 & 30%), Aroclor 1254, Method: Preincubation): inactive; negative
- mutagenic call (End Point: Ames Salmonella typhimurium, Test System: TA100, Metabolic Activation: None, Method: Preincubation): inactive; negative
- mutagenic call (End Point: Ames Salmonella typhimurium, Test System: TA100, Metabolic Activation: Rat, liver, S-9 (10 & 30%), Aroclor 1254, Method: Preincubation): inactive; negative
- mutagenic call (End Point: Ames Salmonella typhimurium, Test System: TA1535, Metabolic Activation: Hamster, liver, S-9 (10 & 30%), Aroclor 1254, Method: Preincubation): inactive; negative
- mutagenic call (End Point: Ames Salmonella typhimurium, Test System: TA1535, Metabolic Activation: None, Method: Preincubation): inactive; negative
- mutagenic call (End Point: Ames Salmonella typhimurium, Test System: TA1535, Metabolic Activation: Rat, liver, S-9 (10 & 30%), Aroclor 1254, Method: Preincubation): inactive; negative
- mutagenic call (End Point: IN VITRO CHROMOSOMAL ABERRATIONS, Test System: CHINESE HAMSTER LUNG FIBROBLAST CELLS (CHL/IU), Metabolic Activation: RAT, LIVER, S-9, PHENOBARBITAL AND 5,6-BENZOFLAVONE): active; positive (structural changes)
- mutagenic call (End Point: IN VITRO CHROMOSOMAL ABERRATIONS, Test System: CHO CELLS, Metabolic Activation: NONE): inactive; negative
- mutagenic call (End Point: IN VITRO CHROMOSOMAL ABERRATIONS, Test System: CHO CELLS, Metabolic Activation: RAT, LIVER, S-9, AROCLOR 1254): inactive; negative
- mutagenic call (End Point: In vivo micronucleus, Test System: Bone marrow polychromatic erythrocytes, Species: Mouse, Strain/Sex: B6C3F1/Male, Route: Intraperitoneal): inactive; negative; strain was inferred
- mutagenic call (End Point: In vivo micronucleus, Test System: Peripheral blood normochromatic erythrocytes, Species: Mouse, Strain/Sex: B6C3F1/Female, Route: Oral): inactive; negative
- mutagenic call (End Point: In vivo micronucleus, Test System: Peripheral blood normochromatic erythrocytes, Species: Mouse, Strain/Sex: B6.129-Trp53tm1Brd (N5) p53 Haploinsufficient//Male, Route: Oral): inactive; negative
- mutagenic call (End Point: In vivo micronucleus, Test System: Peripheral blood normochromatic erythrocytes, Species: Mouse, Strain/Sex: B6.129-Trp53tm1Brd (N5) p53 Haploinsufficient/Female, Route: Oral): inactive; negative
- mutagenic call (End Point: In vivo micronucleus, Test System: Peripheral blood normochromatic erythrocytes, Species: Mouse, Strain/Sex: B6.129-Trp53tm1Brd (N5) p53 Haploinsufficient/Male, Route: Oral): inactive; negative, positive results only at 350 mg/l; trend test not significant.
- mutagenic call (End Point: In vivo micronucleus, Test System: Peripheral blood normochromatic erythrocytes, Species: Mouse, Strain/Sex: FVB Tg.AC hemizygous/Female, Route: Dermal): inactive; negative
- mutagenic call (End Point: In vivo micronucleus, Test System: Peripheral blood normochromatic erythrocytes, Species: Mouse, Strain/Sex: FVB Tg.AC hemizygous/Female, Route: Oral): inactive; negative
- mutagenic call (End Point: In vivo micronucleus, Test System: Peripheral blood normochromatic erythrocytes, Species: Mouse, Strain/Sex: FVB Tg.AC hemizygous/Male, Route: Dermal): inactive; negative
- mutagenic call (End Point: In vivo micronucleus, Test System: Peripheral blood normochromatic erythrocytes, Species: Mouse, Strain/Sex: FVB Tg.AC hemizygous/Male, Route: Oral): inactive; negative
- mutagenic call (End Point: Mouse Lymphoma, Test System: L5178Y (TK+/TK-), Metabolic Activation: None, Method: Suspension/Plate): inactive; negative
- mutagenic call (End Point: Mouse Lymphoma, Test System: L5178Y (TK+/TK-), Metabolic Activation: Rat, liver, S-9, Aroclor 1254, Method: Suspension/Plate): active; positive
- mutagenic call (Test System: AMES SALMONELLA TYPHIMURIUM, Strain/Indicator: RSJ100, Metabolic Activation: NONE, Method: STANDARD PLATE): active; positive
- mutagenic call (Test System: AMES SALMONELLA TYPHIMURIUM, Strain/Indicator: TA97, Metabolic Activation: NONE, Method: STANDARD PLATE): inactive; negative
- mutagenic call (Test System: AMES SALMONELLA TYPHIMURIUM, Strain/Indicator: TA97, Metabolic Activation: RAT, LIVER, S-9, AROCLOR 1254, Method: STANDARD PLATE): active; positive
- mutagenic call (Test System: AMES SALMONELLA TYPHIMURIUM, Strain/Indicator: TA98, Metabolic Activation: HAMSTER, LIVER, S-9, AROCLOR 1254, Method: PREINCUBATION): inactive; negative
- mutagenic call (Test System: AMES SALMONELLA TYPHIMURIUM, Strain/Indicator: TA98, Metabolic Activation: NONE, Method: PREINCUBATION): inactive; negative
- mutagenic call (Test System: AMES SALMONELLA TYPHIMURIUM, Strain/Indicator: TA98, Metabolic Activation: NONE, Method: STANDARD PLATE): inactive; negative
- mutagenic call (Test System: AMES SALMONELLA TYPHIMURIUM, Strain/Indicator: TA98, Metabolic Activation: RAT, LIVER, S-9, AROCLOR 1254, Method: PREINCUBATION): inactive; negative
- mutagenic call (Test System: AMES SALMONELLA TYPHIMURIUM, Strain/Indicator: TA100, Metabolic Activation: HAMSTER, LIVER, S-9, AROCLOR 1254, Method: PREINCUBATION): inactive; negative
- mutagenic call (Test System: AMES SALMONELLA TYPHIMURIUM, Strain/Indicator: TA100, Metabolic Activation: NONE, Method: DESICCATOR): active; positive
- mutagenic call (Test System: AMES SALMONELLA TYPHIMURIUM, Strain/Indicator: TA100, Metabolic Activation: NONE, Method: FLUCTUATION TEST): inactive; negative
- mutagenic call (Test System: AMES SALMONELLA TYPHIMURIUM, Strain/Indicator: TA100, Metabolic Activation: NONE, Method: PREINCUBATION): inactive; negative
- mutagenic call (Test System: AMES SALMONELLA TYPHIMURIUM, Strain/Indicator: TA100, Metabolic Activation: NONE, Method: STANDARD PLATE): inactive; negative
- mutagenic call (Test System: AMES SALMONELLA TYPHIMURIUM, Strain/Indicator: TA100, Metabolic Activation: RAT, LIVER, S-9, AROCLOR 1254, Method: FLUCTUATION TEST): inactive; negative
- mutagenic call (Test System: AMES SALMONELLA TYPHIMURIUM, Strain/Indicator: TA100, Metabolic Activation: RAT, LIVER, S-9, AROCLOR 1254, Method: PREINCUBATION): inactive; negative
- mutagenic call (Test System: AMES SALMONELLA TYPHIMURIUM, Strain/Indicator: TA104, Metabolic Activation: NONE, Method: STANDARD PLATE): inactive; negative
- mutagenic call (Test System: AMES SALMONELLA TYPHIMURIUM, Strain/Indicator: TA104, Metabolic Activation: RAT, LIVER, S-9, AROCLOR 1254, Method: STANDARD PLATE): active; positive
- mutagenic call (Test System: AMES SALMONELLA TYPHIMURIUM, Strain/Indicator: TA1535 (GST+), Metabolic Activation: NONE, Method: STANDARD PLATE): active; positive
- mutagenic call (Test System: AMES SALMONELLA TYPHIMURIUM, Strain/Indicator: TA1535 (GST-), Metabolic Activation: NONE, Method: STANDARD PLATE): inactive; negative
- mutagenic call (Test System: AMES SALMONELLA TYPHIMURIUM, Strain/Indicator: TA1535, Metabolic Activation: HAMSTER, LIVER, S-9, AROCLOR 1254, Method: PREINCUBATION): inactive; negative
- mutagenic call (Test System: AMES SALMONELLA TYPHIMURIUM, Strain/Indicator: TA1535, Metabolic Activation: NONE, Method: PREINCUBATION): inactive; negative
- mutagenic call (Test System: AMES SALMONELLA TYPHIMURIUM, Strain/Indicator: TA1535, Metabolic Activation: RAT, LIVER, S-9, AROCLOR 1254, Method: PREINCUBATION): inactive; negative
- mutagenic call (Test System: AMES SALMONELLA TYPHIMURIUM, Strain/Indicator: TA1535, Metabolic Activation: RAT, LIVER, S-9, AROCLOR 1254, Method: STANDARD PLATE): inactive; negative
- mutagenic call (Test System: AMES SALMONELLA TYPHIMURIUM, Strain/Indicator: TA1537, Metabolic Activation: HAMSTER, LIVER, S-9, AROCLOR 1254, Method: PREINCUBATION): inactive; negative
- mutagenic call (Test System: AMES SALMONELLA TYPHIMURIUM, Strain/Indicator: TA1537, Metabolic Activation: NONE, Method: PREINCUBATION): inactive; negative
- mutagenic call (Test System: AMES SALMONELLA TYPHIMURIUM, Strain/Indicator: TA1537, Metabolic Activation: NONE, Method: STANDARD PLATE): active; positive
- mutagenic call (Test System: AMES SALMONELLA TYPHIMURIUM, Strain/Indicator: TA1537, Metabolic Activation: RAT, LIVER, S-9, AROCLOR 1254, Method: PREINCUBATION): inactive; negative
- mutagenic call (Test System: AMES SALMONELLA TYPHIMURIUM, Strain/Indicator: TA1537, Metabolic Activation: RAT, LIVER, S-9, AROCLOR 1254, Method: STANDARD PLATE): inactive; negative
- mutagenic call (Test System: MOUSE LYMPHOMA, Strain/Indicator: L5178Y (TK+/TK-), Metabolic Activation: NONE, Method: MICROWELL): inactive; negative
- mutagenic call (Test System: MOUSE LYMPHOMA, Strain/Indicator: L5178Y (TK+/TK-), Metabolic Activation: NONE, Method: SUSPENSION/PLATE): inactive; negative
- mutagenic call (Test System: MOUSE LYMPHOMA, Strain/Indicator: L5178Y (TK+/TK-), Metabolic Activation: RAT, LIVER, S-9, AROCLOR 1254, Method: SUSPENSION/PLATE): active; positive
- mutagenic call (Test System: MOUSE LYMPHOMA, Strain/Indicator: L5178Y (TK+/TK-), Metabolic Activation: S-9, Method: MICROWELL): active; positive
- mutagenic call (Test System: UDS RAT HEPATOCYTES, Strain/Indicator: THY INCORP, Metabolic Activation: NONE, Method: AUTORADIOGRAPHY): inactive; negative

Source: PubChem BioAssay AID1259407 (Chemical Carcinogenesis Research Information System (CCRIS), 2018)
